Experimental data reported in article PMC11291776, “The development of ^177Lu-DOTA-CC-PSMA following a unified “Click Chemistry” protocol of synthesizing metal nuclide-conjugated radiopharmaceuticals” (EJNMMI Radiopharmacy and Chemistry, 2024).

Assay: Pharmacokinetics (blood radioactivity after i.v. injection)
Assay type: in vivo
Conditions: healthy BALB/c male mice, i.v. 3.7 MBq, blood 2-240 min, DAS 2.0
Procedure: ^177Lu-DOTA-CC-PSMA (3.7 MBq in 100 µL) or ^177Lu-PSMA-617 (3.7 MBq in 100 µL) was administered intravenously via the tail into BALB/c male mice (n = 6), and a venous blood sample (5 µL) was collected from the tail end of each mouse at different time points after injection (2, 4, 6, 10, 15, 30, 60, 120, and 240 min). The radioactivity of the blood samples was measured by γ-counter, and the pharmacokinetics data were obtained using the DAS 2.0 software.

For `O=C([O-])CN1CCN(CC(=O)[O-])CCN(CC(=O)NCC2CCC(C(=O)N[C@@H](Cc3ccc4ccccc4c3)C(=O)NCCCC[C@H](NC(=O)N[C@@H](CCC(=O)O)C(=O)O)C(=O)O)CC2)CCN(CC(=O)[O-])CC1.[177Lu+3]` (stereo partly shown) [^177Lu-PSMA-617], the blood clearance half-life was 17.18 min.
